Measured values as given in ChEMBL document CHEMBL1158472, “Carbonic anhydrase-encoded dynamic constitutional libraries: toward the discovery of isozyme-specific inhibitors” (J Med Chem, 2009).

How the values were obtained:
Carbonic anhydrase 1 = Carbonic anhydrase 1 (Homo sapiens, UniProt P00915); test: Inhibition of human erythrocytes carbonic anhydrase 1 by CO2 hydration assay
Carbonic anhydrase 2 [1] = target: T1, Carbonic anhydrase 2 (Homo sapiens, UniProt P00918); test: Inhibition of human erythrocytes carbonic anhydrase 2 by CO2 hydration assay
Carbonic anhydrase 2 [2] = target: T1, Carbonic anhydrase 2; test: Binding affinity to human carbonic anhydrase 2

Carbonic anhydrase 1, sequence (P00915 whole entry): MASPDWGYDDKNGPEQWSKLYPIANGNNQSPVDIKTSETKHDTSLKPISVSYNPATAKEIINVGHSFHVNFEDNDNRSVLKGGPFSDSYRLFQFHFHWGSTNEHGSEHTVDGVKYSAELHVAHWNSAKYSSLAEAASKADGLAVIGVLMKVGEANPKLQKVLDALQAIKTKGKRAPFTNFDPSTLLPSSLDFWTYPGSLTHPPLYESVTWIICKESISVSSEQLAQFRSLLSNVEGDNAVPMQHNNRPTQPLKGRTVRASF

**Q.** `O=C(O)c1cccc(/C=N/Cc2ccccc2)c1` was tested. Which Ki (Carbonic anhydrase 1) did it give?
**A.** > 100 µM

**Q.** What about the Ki (Carbonic anhydrase 2 [1]) of the same molecule?
**A.** > 100 µM

**Q.** With `O=S(=O)(O)c1ccc(/C=N/Cc2ccccc2)o1` as the molecule, how does the Ki (Carbonic anhydrase 2 [1]) read?
**A.** > 100 µM

**Q.** Which results are given for `Fc1ccccc1CNCc1ccccc1`?
**A.** Ki (Carbonic anhydrase 1): > 100 µM; Ki (Carbonic anhydrase 2 [1]): > 100 µM

**Q.** `Fc1ccccc1/C=N/Cc1ccccc1` was tested. Which Ki (Carbonic anhydrase 1) did it give?
**A.** > 100 µM

**Q.** What about the Ki (Carbonic anhydrase 2 [1]) of the same molecule?
**A.** > 100 µM

**Q.** `O=C(O)c1cccc(CNCc2ccccc2)c1` was tested. Which Ki (Carbonic anhydrase 1) did it give?
**A.** > 100 µM

**Q.** And the Ki (Carbonic anhydrase 2 [1])?
**A.** > 100 µM

**Q.** Which Ki (Carbonic anhydrase 2 [2]) does the source give for `Cc1ccc(S(=O)(=O)O)cc1` here?
**A.** 460 µM
